The values that follow come from patent publication US8629251B2, “Specific detection and quantification of phosphatidic acid using an Arabidopsis trigalactosyldiacylglycerol-4 (TGD4) protein” (Board of Trustees of Michigan State University, priority 2008, dated 2014).

Common to all, as to type: binding
In assay [1] the target is T1, Arabidopsis TGD2, DsRed-TGD2C WT fusion protein, residues 119-381, SEQ ID NO:107 (Arabidopsis thaliana, UniProt Q9LTR2).
T1 sequence (Q9LTR2 121-381): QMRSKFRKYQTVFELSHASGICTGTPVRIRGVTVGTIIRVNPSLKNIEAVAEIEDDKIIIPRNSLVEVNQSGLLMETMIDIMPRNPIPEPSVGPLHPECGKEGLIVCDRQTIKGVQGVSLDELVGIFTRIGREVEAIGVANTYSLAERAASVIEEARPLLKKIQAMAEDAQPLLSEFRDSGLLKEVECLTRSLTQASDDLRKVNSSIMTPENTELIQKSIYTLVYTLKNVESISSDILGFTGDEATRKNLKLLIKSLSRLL
The assay is described as follows: Protein-lipid overlay assay, DsRed-TGD2C WT. Conditions: commercial phospholipid membrane strip. As to the method: Membrane lipid strips were purchased from Echelon Biosciences (Salt Lake City, Utah). The strips were first blocked with 3% bovine serum albumin in TBST (10 mM Tris-HCl, pH 8.0, 150 mM NaCl, and 0.25% Tween-20) for two hours and incubated in 0.5 μg/mL DsRed-TGD2 fusion protein solution in the blocking buffer at 4° C. overnight. The strips were washed 10 min for 3 times with TBST the next day and soaked in 3% bovine serum albumin in TBST with a Penta-His mouse monoclonal antibody (Sigma-Aldrich, St. Louis, Mo.) at 1:2,000 dilution at 4° C. overnight. The strips were washed twice with TBST and soaked in 3% bovine serum albumin in TBST with horseradish peroxidase-conjugated anti mouse antibody (Bio-Rad, Hercules, Calif.) at 1:20,000 dilution for an hour at room temperature. Following washing with TBST for 1 hour, the protein was detected by using the chemiluminescent detection system (Sigma-Aldrich).

Assay [2] concerns the target T2, Arabidopsis TGD4, DsRED-TGD4C-His (C-terminal fragment 309-479, SEQ ID NO: 131) (Arabidopsis thaliana, UniProt Q9M903).
T2 sequence (Q9M903 309-479): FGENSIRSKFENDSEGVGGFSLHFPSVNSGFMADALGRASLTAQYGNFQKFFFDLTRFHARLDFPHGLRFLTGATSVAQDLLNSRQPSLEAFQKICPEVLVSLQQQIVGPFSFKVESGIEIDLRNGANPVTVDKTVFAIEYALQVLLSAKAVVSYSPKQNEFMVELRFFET
Kind of assay: Liposome association assay, DsRED-TGD4C-His. Conditions: dioleoyl-PtdOH/dioleoyl-PtdCho liposomes, 0 to 80% PtdOH, FIG. 19B. As to the method:
(§1) Liposome Association Assay:
(§2) The liposome association assay was adapted from (Awai et al., 2006, Lu and Benning, 2009) with minor modifications. Dioleoyl-PtdCho and PtdOH with different acyl chain lengths and desaturation levels were used for making liposomes. In other liposomes 1-palmitoyl-2-(12-((7-nitro-2-1,3-benzoxadiazol-4-yl)amino)dodecanoyl)-sn-glycero-3-phosphate (NBD-PtdOH; Avanti, Alabaster, Ala.) was used. The lipids were mixed at indicated ratios to give a total lipid amount of 250 μg. The lipids were dried under a stream of nitrogen, resuspended in 0.5 ml TBS buffer with 0.2 M choline chloride and hydrated at 37° C. for 1 hour followed by vigorous vortexing for 2 minutes. The resulting multi-lamellar vesicles were centrifuged at 13,000×g for 10 minutes and then washed once with TBS buffer containing 0.2 M choline chloride. The liposomes were resuspended into 100 μl TBS buffer with 0.2 M choline chloride and incubated with 2 μg purified DsRED-TGD4-His protein and its derivatives. The protein liposome mixture was incubated on ice for 30 minutes followed by centrifugation at 13,000×g for 10 minutes and two washes with 500 μl TBS containing 0.2 M choline chloride. The resulting protein-liposome pellet was resuspended in 20 μl 2× Laemmli buffer (Laemmli, 1970) and processed by SDS-PAGE (Shapiro and Maizel, 1969).

In assay [3] the target is T3, Arabidopsis TGD4, TGD4N-DsRED-His (N-terminal fragment 1-286, SEQ ID NO:130) (Arabidopsis thaliana, UniProt Q9M903).
T3 construct: made in house; host or cells: Escherichia coli BL21 (DE3)
T3 sequence (Q9M903 1-286): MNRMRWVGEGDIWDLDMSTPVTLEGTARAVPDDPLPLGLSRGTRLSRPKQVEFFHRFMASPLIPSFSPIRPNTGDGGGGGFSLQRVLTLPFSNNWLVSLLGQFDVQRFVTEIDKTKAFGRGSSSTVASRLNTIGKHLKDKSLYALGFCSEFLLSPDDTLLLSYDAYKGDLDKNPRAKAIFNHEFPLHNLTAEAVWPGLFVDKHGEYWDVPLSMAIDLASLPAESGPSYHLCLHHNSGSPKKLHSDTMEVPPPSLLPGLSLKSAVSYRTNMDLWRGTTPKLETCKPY
Kind of assay: Liposome association assay, TGD4N-DsRED-His. The following applies: dioleoyl-PtdOH/dioleoyl-PtdCho liposomes, 0 to 80% PtdOH, FIG. 19B. As to the method:
as §1, §2

Turning to `CCCCCCCC/C=C\CCCCCCCC(=O)OC[C@H](COP(=O)(O)O)OC(=O)CCCCCCC/C=C\CCCCCCCC` [PA, phosphatidic acid], in assay [1], the “binding to lipids on membrane strip” value is “shows specificity for PA over other lipids”. In addition, the PtdOH binding affinity result is given as “much lower affinity compared to the wild-type protein DsRED-TGD4-His but still bound PtdOH” in assay [2] and “comparable to the full-length protein DsRED-TGD4-His” in assay [3].
